From patent US11661400B2, “NADPH oxidase inhibitors, pharmaceutical composition comprising the same, and application thereof” (TAIWANJ PHARMACEUTICALS CO., LTD., priority 2018, dated 2023)

Assays:
[1] = biological target: T1, NOX4 (Homo sapiens, UniProt Q9NPH5); assay: NOX4 HEK293 overexpression cell-based assay (Amplex Red H2O2); conditions: HEK293 cells stably overexpressing NOX4, DMSO = 0, GKT137831 = 100; for inhibition at 1 µM: HEK293, 1000 nM; for inhibition at 0.1 µM: HEK293, 100 nM
T1 construct: expressed in transfected cells
T1 sequence (Q9NPH5 1-578): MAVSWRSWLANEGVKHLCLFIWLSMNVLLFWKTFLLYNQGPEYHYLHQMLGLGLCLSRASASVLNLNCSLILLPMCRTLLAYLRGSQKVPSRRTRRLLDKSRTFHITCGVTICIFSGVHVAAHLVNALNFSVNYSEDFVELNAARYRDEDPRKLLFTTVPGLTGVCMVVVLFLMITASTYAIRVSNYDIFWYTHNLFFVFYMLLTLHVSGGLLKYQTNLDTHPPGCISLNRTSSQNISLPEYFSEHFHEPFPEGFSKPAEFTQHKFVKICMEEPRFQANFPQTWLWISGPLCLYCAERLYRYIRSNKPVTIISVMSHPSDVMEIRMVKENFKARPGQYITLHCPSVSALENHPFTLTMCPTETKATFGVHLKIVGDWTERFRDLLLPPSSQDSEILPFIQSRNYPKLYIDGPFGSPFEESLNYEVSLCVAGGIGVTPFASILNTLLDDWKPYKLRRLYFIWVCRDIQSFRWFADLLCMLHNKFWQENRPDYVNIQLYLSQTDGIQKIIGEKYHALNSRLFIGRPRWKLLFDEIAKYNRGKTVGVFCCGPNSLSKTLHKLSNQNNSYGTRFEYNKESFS
T1 sequence (P13498 2-195 partner limits assumed): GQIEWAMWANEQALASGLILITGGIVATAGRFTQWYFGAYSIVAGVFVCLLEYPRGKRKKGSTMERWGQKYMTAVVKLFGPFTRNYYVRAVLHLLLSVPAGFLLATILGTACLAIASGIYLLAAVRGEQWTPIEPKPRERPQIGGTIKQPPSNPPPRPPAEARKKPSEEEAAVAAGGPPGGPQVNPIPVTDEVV
Experimental: Extracellular H2O2 measurement using Amplex™ Red Hydrogen Peroxide/Peroxidase Assay Kit (Catalog number: A22188; Invitrogen, Carlsbad, Calif., USA) was used to detect extracellular H2O2 release by HEK293 cells stably overexpressing NOX4. NOX4 clonal cells in log-phase growth were trypsinized, washed, and dispersed thoroughly. Following trypsinization, the cells (3×10^4) were resuspended in 100 μL of 1× Krebs-Ringer phosphate glucose (KRPG) buffer containing various concentrations of GKT137831 or test compounds and incubated at 37° C. for 30 min. Cells were mixed with 100 μL of Amplex Red reagent solution containing 50 μM Amplex Red and 0.1 units/mL of HRP in KRPG buffer; each assay condition was evaluated induplicate. The samples were incubated at 37° C. for 90 mins in the dark, and then centrifuged at 2,500 g for 5 mins. The supernatants were loaded to a 96 well plate, and then measured using a SpectraMax i3 Multiplate reader (Molecular Devices, Sunnyvale, Calif., USA) at 530 nm excitation and 590 nm emission respectively. DMSO and GKT137831 wells were applied as negative and positive controls, and the activities measured were set to 0 and 100, respectively.

[2] = biological target: T2, NOX2 (Homo sapiens, UniProt P04839); assay: NOX2 HL60 cell-based assay (PMA oxidative burst, L012 chemiluminescence); conditions: DMSO-differentiated HL-60 cells, PMA-stimulated; for inhibition at 0.1 µM: HL-60, 100 nM; for inhibition at 1 µM: HL-60, 1000 nM
T2 construct: HL-60 cells, rich in NOX2 expression; endogenous in cells; host or cells: DMSO-differentiated HL-60
T2 sequence (P04839 2-570 limits assumed): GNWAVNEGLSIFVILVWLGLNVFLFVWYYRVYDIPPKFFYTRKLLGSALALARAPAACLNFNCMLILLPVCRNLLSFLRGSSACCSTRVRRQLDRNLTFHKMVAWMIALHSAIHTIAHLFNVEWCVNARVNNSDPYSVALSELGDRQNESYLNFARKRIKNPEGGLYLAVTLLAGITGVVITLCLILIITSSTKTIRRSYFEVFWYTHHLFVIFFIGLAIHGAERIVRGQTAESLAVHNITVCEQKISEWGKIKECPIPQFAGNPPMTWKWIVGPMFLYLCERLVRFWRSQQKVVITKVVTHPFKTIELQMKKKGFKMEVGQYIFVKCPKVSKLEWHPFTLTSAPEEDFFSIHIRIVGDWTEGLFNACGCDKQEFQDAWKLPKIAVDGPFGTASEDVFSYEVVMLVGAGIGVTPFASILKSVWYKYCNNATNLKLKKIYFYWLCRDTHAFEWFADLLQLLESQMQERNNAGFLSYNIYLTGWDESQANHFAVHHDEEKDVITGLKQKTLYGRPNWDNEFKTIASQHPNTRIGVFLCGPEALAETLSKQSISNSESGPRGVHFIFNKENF
T2 sequence (P13498 2-195 partner limits assumed): T1 sequence (P13498 2-195 partner limits assumed)
Experimental: NOX2 HL60 Cell-Based Assay:
HL-60 cells, rich in NOX2 expression, was stimulated to undergo oxidative burst by phorbol myristate acetate (PMA). The ROS produced during this process was measured using the O2^−-specific chemiluminescent probe L012. L012 was added to DMSO-differentiated HL-60 cell suspensions to a final concentration of 100 μM. Then, 80 μL aliquots of cell suspension (2.5×10^5 cells) were transferred to individual wells of a 96-well plate. Test compounds were directly added to the wells at the specified concentrations. Following a 30-60 mins incubation at 37° C. in the dark, the oxidative burst was initiated by the addition of 10 ng/mL PMA, and the chemiluminescence signal was recorded every 5 min over a period of 60 mins in a SpectraMax i3 Multiplate reader (Molecular Devices, Sunnyvale, Calif., USA). • NOX4 HEK293 Overexpression Cell-Based Assay: […]

[3] = biological target: T3, NOX1 (Homo sapiens, UniProt Q9Y5S8); assay: NOX1 HT29 cell-based assay (luminol/HRP luminescence); conditions: HT29 cells, DMSO = 0%, GKT137831 = 100%; for inhibition at 0.1 µM / inhibition at 1 µM: HT-29
T3 construct: endogenous in cells; host or cells: HT29
T3 sequence (Q9Y5S8 1-564): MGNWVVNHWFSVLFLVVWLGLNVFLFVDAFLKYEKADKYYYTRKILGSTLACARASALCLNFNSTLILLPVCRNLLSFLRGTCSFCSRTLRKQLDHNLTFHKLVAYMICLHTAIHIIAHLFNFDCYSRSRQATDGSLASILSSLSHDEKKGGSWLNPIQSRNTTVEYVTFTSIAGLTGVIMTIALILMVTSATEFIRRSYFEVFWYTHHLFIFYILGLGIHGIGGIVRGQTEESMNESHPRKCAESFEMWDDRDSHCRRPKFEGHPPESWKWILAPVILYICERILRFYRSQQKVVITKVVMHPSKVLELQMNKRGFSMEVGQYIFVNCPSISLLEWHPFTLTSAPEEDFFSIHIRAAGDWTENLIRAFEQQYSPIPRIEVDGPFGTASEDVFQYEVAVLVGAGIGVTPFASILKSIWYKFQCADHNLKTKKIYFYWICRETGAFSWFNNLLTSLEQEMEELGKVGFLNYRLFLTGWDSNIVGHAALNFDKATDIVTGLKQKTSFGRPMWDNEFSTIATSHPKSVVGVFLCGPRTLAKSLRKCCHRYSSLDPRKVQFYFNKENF
T3 sequence (P13498 2-195 partner limits assumed): T1 sequence (P13498 2-195 partner limits assumed)
Experimental: NOX1 HT29 Cell-Based Assay:
HT29 cells were cultured in T75 flask (Corning) and when 70-80% confluence was reached, cells were trypsinized, harvested in HBSS and counted. 1-2×10^5 cells were dispensed into individual wells in 70 μl final volume (96-well plates, white Corning). Cells were treated for 30-60 mins at 37° C. with 10 μl of GKT137831, DMSO and test compounds from their respective assay plates. This will correspond to a final concentration of 100 nM, 1000 nM GKT137831 or test compounds, and 0.1% DMSO. 20 μL of a mixture containing 100 μM luminol plus 0.4 units of HRP (final concentration) was added. Luminescence was quantified using a SpectraMax i3 Multiplate reader (Molecular Devices, Sunnyvale, Calif., USA). As designed, compounds that inhibit NOX1 activity will reduce cellular ROS production, leading to reduced probe-ROS interactions and reduced well luminescence. Compounds were tested in duplicate at a concentration of 100 nM and 1000 nM. DMSO and GKT137831 wells were applied as negative and positive controls, and the activities measured were set to 0% and 100%, respectively.

Row | Structure (SMILES) | inhibition at 1 µM [1] [%] | inhibition at 0.1 µM [2] [%] | inhibition at 0.1 µM ([3]; 100 nM) [%] | inhibition at 1 µM ([3]; 1000 nM) [%] | inhibition at 0.1 µM [1] [%] | inhibition at 1 µM [2] [%] | % Inhibition NOX4 ([1]; 100 nM) | % Inhibition NOX2 ([2]; 1000 nM) | % Inhibition NOX4 ([1]; 1000 nM, 1 µM) | % Inhibition NOX2 ([2]; 100 nM) | % Inhibition NOX1 ([3]; 100 nM) | % Inhibition NOX1 ([3]; 1000 nM) | % Inhibition NOX4 ([1]; 1000 nM) | % Inhibition NOX2 ([2]; 100 nM, 0.1 µM) | % Inhibition NOX2 ([2]; 1000 nM, 1 µM) | % Inhibition NOX4 ([1]; 100 nM, 0.1 µM)
1 | COc1ccc(-c2[nH]c3ccsc3c(=O)c2O)cc1 [Compound 10] | ≥ 80 | ≤ 19 | ≥ 80 | ≥ 80 |  |  | C (the percent of inhibition of NOX by the compounds ranges from 2000 to 49%) | C (the percent of inhibition of NOX by the compounds ranges from 2000 to 49%) |  |  |  |  |  |  |  | 
2 | COc1cc2[nH]c(-c3ccccc3Cl)c(O)c(=O)c2cc1OC [Compound 46] |  |  |  |  |  |  | B (the percent of inhibition of NOX by the compounds ranges from 50% o to 79% o) | A (the percent of inhibition of NOX by the compounds is larger than or equals to 80%) | B (the percent of inhibition of NOX by the compounds ranges from 50% o to 79% o) | D (the percent of inhibition of NOX by the compounds is smaller than or equals to 19% o) | A (the percent of inhibition of NOX by the compounds is larger than or equals to 80%) | A (the percent of inhibition of NOX by the compounds is larger than or equals to 80%) |  |  |  | 
3 | COc1cc2[nH]c(-c3ccccc3C(F)(F)F)c(O)c(=O)c2cc1OC [Compound 41, 3-hydroxy-6,7-dimethoxy-2-(2-(trifluoromethyl)phenyl) quinolin-4(1H)-one] |  |  |  |  |  |  | B (the percent of inhibition of NOX by the compounds ranges from 50% o to 79% o) |  |  |  | A (the percent of inhibition of NOX by the compounds is larger than or equals to 80%) | A (the percent of inhibition of NOX by the compounds is larger than or equals to 80%) | B (the percent of inhibition of NOX by the compounds ranges from 50% o to 79% o) | C (the percent of inhibition of NOX by the compounds ranges from 2000 to 49%) | A (the percent of inhibition of NOX by the compounds is larger than or equals to 80%) | 
4 | COc1ccccc1-c1[nH]c2cccc(-c3cccc(N(C)C)c3)c2c(=O)c1O [Compound 40] | 50 to 79 |  | ≤ 19 | ≥ 80 | ≤ 19 | 50 to 79 |  |  |  | C (the percent of inhibition of NOX by the compounds ranges from 2000 to 49%) |  |  |  |  |  | 

Continued, in another order:

Row | inhibition at 1 µM [1] [%] | inhibition at 0.1 µM [2] [%] | inhibition at 0.1 µM ([3]; 100 nM) [%] | inhibition at 1 µM ([3]; 1000 nM) [%] | inhibition at 0.1 µM [1] [%] | inhibition at 1 µM [2] [%] | Structure (SMILES) | % Inhibition NOX4 ([1]; 100 nM) | % Inhibition NOX2 ([2]; 1000 nM) | % Inhibition NOX4 ([1]; 1000 nM, 1 µM) | % Inhibition NOX2 ([2]; 100 nM) | % Inhibition NOX1 ([3]; 100 nM) | % Inhibition NOX1 ([3]; 1000 nM) | % Inhibition NOX4 ([1]; 1000 nM) | % Inhibition NOX2 ([2]; 100 nM, 0.1 µM) | % Inhibition NOX2 ([2]; 1000 nM, 1 µM) | % Inhibition NOX4 ([1]; 100 nM, 0.1 µM)
5 | ≤ 19 | 50 to 79 | ≤ 19 | ≥ 80 | ≤ 19 | ≥ 80 | COc1cc2[nH]c(-c3ccccc3N)c(O)c(=O)c2cc1OC [Compound 30, 2-(2-aminophenyl)-3-hydroxy-6,7-dimethoxyquinolin-4(1H)-one] |  |  |  |  |  |  |  |  |  | 
6 | 50 to 79 |  |  | ≥ 80 | ≤ 19 | ≥ 80 | COc1cc2[nH]c(-c3ccccc3Cl)c(N)c(=O)c2cc1OC [Compound 36, 3-amino-2-(2-chlorophenyl)-6,7-dimethoxyquinolin-4(1H)-one] |  |  |  | C (the percent of inhibition of NOX by the compounds ranges from 2000 to 49%) | C (the percent of inhibition of NOX by the compounds ranges from 2000 to 49%) |  |  |  |  | 
7 |  |  | ≤ 19 |  |  |  | COc1cc2[nH]c(-c3ccc(Cl)cc3)c(O)c(=O)c2cc1OC [Compound 45] |  | D (the percent of inhibition of NOX by the compounds is smaller than or equals to 19% o) |  | D (the percent of inhibition of NOX by the compounds is smaller than or equals to 19% o) |  | A (the percent of inhibition of NOX by the compounds is larger than or equals to 80%) | B (the percent of inhibition of NOX by the compounds ranges from 50% o to 79% o) |  |  | C (the percent of inhibition of NOX by the compounds ranges from 2000 to 49%)
